Assay results as given in ChEMBL document CHEMBL1201862, “PubChem BioAssay data set” (2004).
One block for each compound: values may come before it. Calls of active or inactive are those of the source. Unless noted, no cut-off for these calls is given here.

Legend:
[1] = Late stage assay provider results from the probe development effort to identify inhibitors of the Plasmodium falciparum M18 Aspartyl Aminopeptidase (M18AAP): radiolabel-based cell-based dose response assay to identify compounds that inhibit P. falciparum growth in RBCs, Set 2..; type: functional
[2] = YAP1 pathway inhibition via CTGF transcript levels, dose response, cell-based, DLD1 colon cancer, RT-qPCR, cherry-pick (AID 1053122); type: functional; conditions: Cancer cell lines
[3] = HEK293T cell cytotoxicity, dose response, cytotoxicity control, CellTiter-Glo luminescence, dry powder, set 6 (AID 651949); type: functional, cell-based; conditions: HEK293
[4] = cytotoxicity in HepG2 cells, dose response, cytotoxicity control, cell-based, cherry-picked samples (AID 1053183); type: functional
[5] = cytotoxicity in A549 cells, dose response, cytotoxicity control, cell-based, cherry-picked samples (AID 1053184); type: functional
[6] = cytotoxicity in HEK293 cells, dose response, cytotoxicity control, cell-based, cherry-picked samples (AID 1053185); type: functional
[7] = inhibitors of PGC1a acetylation in cells, dose response, cell-based, cherry-picked samples (AID 720514); type: functional;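 note: potency may reflect raised or lowered acetylation signal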
[8] = target: Vasopressin V1b receptor (Homo sapiens, UniProt P47901); experiment: Late-stage results from the probe development effort to identify antagonists of arginine vasopressin receptor 1a (AVPR1a): fluorescence-based cell-based dose response AVPR1b inhibition counterscreen assay.; type: functional
Sequence of Vasopressin V1b receptor (P47901 whole entry): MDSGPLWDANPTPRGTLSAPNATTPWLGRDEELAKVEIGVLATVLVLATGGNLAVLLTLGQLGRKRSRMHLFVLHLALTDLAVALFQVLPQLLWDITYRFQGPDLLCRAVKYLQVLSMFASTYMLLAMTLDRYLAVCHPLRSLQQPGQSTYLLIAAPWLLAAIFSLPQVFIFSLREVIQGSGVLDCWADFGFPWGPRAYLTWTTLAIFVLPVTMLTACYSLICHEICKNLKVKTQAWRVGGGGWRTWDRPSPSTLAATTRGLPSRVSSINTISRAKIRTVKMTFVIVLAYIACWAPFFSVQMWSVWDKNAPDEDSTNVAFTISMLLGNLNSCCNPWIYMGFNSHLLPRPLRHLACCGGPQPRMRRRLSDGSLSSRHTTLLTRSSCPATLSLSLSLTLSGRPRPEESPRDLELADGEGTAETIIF

[9] = Late-stage results from the probe development effort to identify antagonists of arginine vasopressin receptor 1a (AVPR1a): fluorescence-based cell-based dose response AVPR1a inhibition assay.; type: functional
[10] = Late-stage results from the probe development effort to identify antagonists of arginine vasopressin receptor 1a (AVPR1a): fluorescence-based cell-based dose response OXTR inhibition counterscreen assay.; type: functional
[11] = target: Vasopressin V2 receptor (Homo sapiens, UniProt P30518); experiment: Late-stage results from the probe development effort to identify antagonists of arginine vasopressin receptor 1a (AVPR1a): fluorescence-based cell-based dose response AVPR2 inhibition counterscreen assay.; type: functional
Sequence of Vasopressin V2 receptor (P30518 whole entry): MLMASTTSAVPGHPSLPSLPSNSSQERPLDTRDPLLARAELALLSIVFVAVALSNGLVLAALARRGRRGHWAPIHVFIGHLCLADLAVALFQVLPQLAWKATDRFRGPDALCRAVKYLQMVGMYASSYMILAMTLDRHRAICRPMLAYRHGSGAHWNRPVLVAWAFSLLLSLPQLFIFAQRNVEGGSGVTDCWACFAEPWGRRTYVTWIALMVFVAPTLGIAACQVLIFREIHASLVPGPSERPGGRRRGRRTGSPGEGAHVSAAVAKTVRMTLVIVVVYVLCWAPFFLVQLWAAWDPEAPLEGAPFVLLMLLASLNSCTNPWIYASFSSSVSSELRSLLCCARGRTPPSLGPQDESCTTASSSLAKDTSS

[12] = target: Potassium channel subfamily K member 3 (Homo sapiens, UniProt O14649); experiment: TASK1 (KCNK3) potassium channel inhibitors, SAR follow-up, CHO cells, FluxOR thallium flux (AID 652212); type: functional
Sequence of Potassium channel subfamily K member 3 (Homo sapiens, UniProt O14649) (O14649 whole entry): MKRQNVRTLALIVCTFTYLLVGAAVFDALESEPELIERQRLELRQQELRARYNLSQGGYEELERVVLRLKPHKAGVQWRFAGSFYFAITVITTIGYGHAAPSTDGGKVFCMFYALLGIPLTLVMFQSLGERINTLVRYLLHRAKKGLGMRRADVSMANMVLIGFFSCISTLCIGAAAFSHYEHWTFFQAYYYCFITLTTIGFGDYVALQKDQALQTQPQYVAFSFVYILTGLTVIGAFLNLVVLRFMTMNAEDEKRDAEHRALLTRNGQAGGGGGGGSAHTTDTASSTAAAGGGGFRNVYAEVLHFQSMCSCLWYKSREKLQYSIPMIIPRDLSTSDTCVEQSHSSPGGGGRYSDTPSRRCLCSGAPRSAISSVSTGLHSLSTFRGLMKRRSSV

[13] = target: Potassium voltage-gated channel subfamily KQT member 2 (Rattus norvegicus, UniProt O88943); experiment: KCNQ2 channel inhibition, SAR follow-up, selectivity assay for TASK1 inhibitor project, cell-based, FluxOR thallium flux, concentration-response (AID 652192); type: functional
Sequence of Potassium voltage-gated channel subfamily KQT member 2 (O88943 whole entry): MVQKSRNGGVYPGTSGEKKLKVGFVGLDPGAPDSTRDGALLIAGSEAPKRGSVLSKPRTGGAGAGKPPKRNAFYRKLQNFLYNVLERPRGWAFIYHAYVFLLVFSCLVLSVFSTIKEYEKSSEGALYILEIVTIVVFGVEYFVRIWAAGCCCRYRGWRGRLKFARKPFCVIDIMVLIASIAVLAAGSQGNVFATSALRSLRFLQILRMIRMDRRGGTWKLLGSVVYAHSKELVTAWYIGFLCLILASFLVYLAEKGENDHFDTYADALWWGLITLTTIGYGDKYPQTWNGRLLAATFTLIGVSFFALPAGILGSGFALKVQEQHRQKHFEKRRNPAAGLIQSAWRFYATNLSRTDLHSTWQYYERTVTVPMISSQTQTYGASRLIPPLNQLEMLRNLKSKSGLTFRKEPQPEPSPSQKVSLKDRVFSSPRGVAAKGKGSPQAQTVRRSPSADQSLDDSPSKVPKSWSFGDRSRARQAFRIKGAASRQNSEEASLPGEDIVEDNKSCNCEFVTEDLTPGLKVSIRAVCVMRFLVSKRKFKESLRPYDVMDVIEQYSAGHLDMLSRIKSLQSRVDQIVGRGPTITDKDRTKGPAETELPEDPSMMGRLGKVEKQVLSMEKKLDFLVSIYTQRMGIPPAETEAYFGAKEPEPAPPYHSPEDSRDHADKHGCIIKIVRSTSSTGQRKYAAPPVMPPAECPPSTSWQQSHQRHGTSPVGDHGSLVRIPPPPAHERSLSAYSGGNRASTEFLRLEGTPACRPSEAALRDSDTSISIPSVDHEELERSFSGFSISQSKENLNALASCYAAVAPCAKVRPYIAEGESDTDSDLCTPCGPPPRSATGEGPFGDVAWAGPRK

[14] = target: T1, Potassium channel subfamily K member 9 (Homo sapiens, UniProt Q9NPC2); experiment: TASK3 (KCNK9) channel inhibitors, thallium flux, SAR follow-up, selectivity assay for TASK1 inhibitor project, cell-based, FluxOR thallium flux, concentration-response (AID 652211); type: functional;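 note: potency is for inhibitors of the channel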
T1 sequence (Q9NPC2 whole entry, the tested form may be a part): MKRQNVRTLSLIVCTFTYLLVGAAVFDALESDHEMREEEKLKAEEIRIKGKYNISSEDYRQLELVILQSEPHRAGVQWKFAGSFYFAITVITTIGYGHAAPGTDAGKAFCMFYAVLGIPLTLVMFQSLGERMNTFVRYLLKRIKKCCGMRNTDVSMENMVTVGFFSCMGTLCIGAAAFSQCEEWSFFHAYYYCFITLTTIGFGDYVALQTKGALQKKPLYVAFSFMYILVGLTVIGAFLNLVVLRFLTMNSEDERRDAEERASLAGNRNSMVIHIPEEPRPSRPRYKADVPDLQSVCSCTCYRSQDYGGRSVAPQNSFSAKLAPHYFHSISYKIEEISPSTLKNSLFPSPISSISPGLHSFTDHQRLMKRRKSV

[15] = target: Potassium channel subfamily K member 3 (Rattus norvegicus, UniProt O54912); experiment: SAR analysis for the identification of selective inhibitors of the two-pore domain potassium channel TASK1(KCNK3):Automated Electrophysiology.; type: functional
Sequence of Potassium channel subfamily K member 3 (Rattus norvegicus, UniProt O54912) (O54912 whole entry, the tested form may be a part): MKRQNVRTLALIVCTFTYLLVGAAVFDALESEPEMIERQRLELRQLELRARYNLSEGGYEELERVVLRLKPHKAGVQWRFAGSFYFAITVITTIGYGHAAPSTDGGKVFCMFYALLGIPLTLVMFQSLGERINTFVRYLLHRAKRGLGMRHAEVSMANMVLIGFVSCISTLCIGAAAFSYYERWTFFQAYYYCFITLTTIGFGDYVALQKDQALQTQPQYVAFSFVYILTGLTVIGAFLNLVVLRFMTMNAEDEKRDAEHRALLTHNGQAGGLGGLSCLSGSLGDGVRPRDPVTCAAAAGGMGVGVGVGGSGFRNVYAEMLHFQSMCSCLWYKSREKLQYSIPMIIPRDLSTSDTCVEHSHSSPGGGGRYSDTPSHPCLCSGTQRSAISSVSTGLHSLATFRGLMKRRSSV

[16] = target: T1, Potassium channel subfamily K member 9; experiment: KCNK9 (TASK3) current inhibition by patch clamp, SAR follow-up, selectivity assay for TASK1 (KCNK3) inhibitor project, cell-based, automated electrophysiology (AID 652210); type: functional
[17] = target: Metabotropic glutamate receptor 5 (Rattus norvegicus, UniProt P31424); experiment: Identification of a glycine sulfonamide based non-MPEP site positive allosteric potentiator (PAM) of mGlu5 (calcium_assay).; type: functional
Sequence of Metabotropic glutamate receptor 5 (P31424 whole entry): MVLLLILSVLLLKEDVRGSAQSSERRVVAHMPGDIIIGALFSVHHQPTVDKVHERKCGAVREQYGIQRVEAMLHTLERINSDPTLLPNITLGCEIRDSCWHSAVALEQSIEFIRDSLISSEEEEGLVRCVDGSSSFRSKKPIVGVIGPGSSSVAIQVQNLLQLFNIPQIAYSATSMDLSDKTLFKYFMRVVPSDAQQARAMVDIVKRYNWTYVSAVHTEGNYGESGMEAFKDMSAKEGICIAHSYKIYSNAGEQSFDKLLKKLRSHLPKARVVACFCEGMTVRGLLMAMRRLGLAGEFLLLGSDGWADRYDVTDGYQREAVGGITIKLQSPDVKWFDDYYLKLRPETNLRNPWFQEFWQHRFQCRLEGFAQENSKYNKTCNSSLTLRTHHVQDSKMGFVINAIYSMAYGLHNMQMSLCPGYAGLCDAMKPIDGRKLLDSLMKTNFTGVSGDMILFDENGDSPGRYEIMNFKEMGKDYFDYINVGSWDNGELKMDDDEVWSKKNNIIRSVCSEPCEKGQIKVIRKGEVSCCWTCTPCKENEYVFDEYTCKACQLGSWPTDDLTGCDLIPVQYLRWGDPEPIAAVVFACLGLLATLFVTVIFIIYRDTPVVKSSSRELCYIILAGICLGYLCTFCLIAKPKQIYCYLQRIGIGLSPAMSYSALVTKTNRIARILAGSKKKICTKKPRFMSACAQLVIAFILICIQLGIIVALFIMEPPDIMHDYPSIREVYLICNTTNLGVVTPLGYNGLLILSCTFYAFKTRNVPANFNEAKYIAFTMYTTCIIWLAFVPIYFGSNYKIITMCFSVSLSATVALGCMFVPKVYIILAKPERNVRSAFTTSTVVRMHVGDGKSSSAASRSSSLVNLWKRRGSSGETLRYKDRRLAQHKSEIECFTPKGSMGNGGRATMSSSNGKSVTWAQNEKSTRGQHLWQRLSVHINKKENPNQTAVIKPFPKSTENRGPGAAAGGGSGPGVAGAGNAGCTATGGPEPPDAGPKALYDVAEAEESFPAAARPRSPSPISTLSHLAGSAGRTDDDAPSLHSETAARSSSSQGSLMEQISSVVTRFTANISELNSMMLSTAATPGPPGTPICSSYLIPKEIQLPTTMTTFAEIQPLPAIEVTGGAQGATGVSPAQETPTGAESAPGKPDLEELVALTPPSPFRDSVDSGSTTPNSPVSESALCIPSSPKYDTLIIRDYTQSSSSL

Compound: CCN(CC)Cc1cc(Nc2ccnc3cc(Cl)ccc23)ccc1O
IC50 [1]: 0.19 µM (active)

Compound: CO[C@@H](CN(C)S(=O)(=O)c1ccc(C)cc1)[C@@H](C)CN([C@H](C)CO)S(=O)(=O)c1cccc(Cl)c1
AC50 [2]: 18.6 µM (active)

Compound: CS(=O)(=O)c1cccc(-c2nnc(SCc3ccccc3)o2)c1
AC50 [3]: > 52 µM (inactive)

Compound: Cc1cccc(-c2ccc([C@@H]3[C@@H]4CN(Cc5cccc(F)c5)C[C@H]3N4)cc2)c1
AC50 [4]: 17.7 µM (active) | AC50 [5]: 35.4 µM (active) | AC50 [6]: 27.1 µM (active) | AC50 [7]: 20.4 µM (active)

Compound: Cc1ccc(N2CCC(C(=O)N(CC3CC3)c3ccc(Cl)cc3)CC2)nc1
IC50 [8]: 20.8 µM (inactive) | IC50 [9]: 0.0201 µM (active) | IC50 [10]: 12.4 µM (inactive) | IC50 [11]: 12.3 µM (inactive)

IC50 [12]: 0.01 µM (active) | IC50 [13]: 1.88 µM (active) | IC50 [14]: 0.44 µM (active) | IC50 [15]: 0.011 µM (active) | IC50 [16]: 0.38 µM (active)
Compound: CCOc1ccccc1C(=O)Nc1cccc(NC(=O)c2cccc(C)c2)c1

EC50 [17]: > 30 µM (inactive)
Compound: O=C(Nc1cccc(Cl)c1)[C@H]1CCc2ccccc2N1S(=O)(=O)c1cccs1
